Several values for one entry are separate records, joined by “and”; a condition that tells them apart may be missing. Identical values can stand only once. Inconclusive results and toxic doses are left out. Rule as the data show it: active = T/C of 150% or more; inactive = T/C below 125%.
System: L1210 leukemia ip in BDF1 mice, survival T/C
Test: NCI In Vivo Anticancer Drug Screen. Data for tumor model L1210 Leukemia (intraperitoneal) in B6D2F1 (BDF1) mice
Settings: endpoint: mean survival time, higher = longer survival
How it was run: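 Value reflects the ratio of survival in compound-treated mice to survival in vehicle-treated controls, with both groups carrying the same transplanted tumor.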

[1] = dose: 100.0 mg/kg/injection, schedule: Q04DX003 (ip), vehicle: Klucel (hydroxypropylcellulose) (HPC)
[2] = dose: 200.0 mg/kg/injection, schedule: Q04DX003 (ip), vehicle: Klucel (hydroxypropylcellulose) (HPC)
[3] = dose: 50.0 mg/kg/injection, schedule: Q01DX009 (ip), vehicle: saline with Tween-80
[4] = dose: 100.0 mg/kg/injection, schedule: Q01DX009 (ip), vehicle: saline with Tween-80
[5] = dose: 100.0 mg/kg/injection, schedule: Q04DX003 (ip), vehicle: saline with Tween-80
[6] = dose: 200.0 mg/kg/injection, schedule: Q04DX003 (ip), vehicle: saline with Tween-80
[7] = dose: 400.0 mg/kg/injection, schedule: Q04DX003 (ip), vehicle: saline with Tween-80
[8] = dose: 100.0 mg/kg/injection, schedule: Q04DX002 (ip), vehicle: Klucel (hydroxypropylcellulose) (HPC)
[9] = dose: 200.0 mg/kg/injection, schedule: Q04DX002 (ip), vehicle: Klucel (hydroxypropylcellulose) (HPC)
[10] = dose: 100.0 mg/kg/injection, schedule: Q01DX009 (ip), vehicle: Klucel (hydroxypropylcellulose) (HPC)
[11] = dose: 200.0 mg/kg/injection, schedule: Q01DX009 (ip), vehicle: Klucel (hydroxypropylcellulose) (HPC)
[12] = dose: 400.0 mg/kg/injection, schedule: Q01DX009 (ip), vehicle: Klucel (hydroxypropylcellulose) (HPC)
[13] = dose: 400.0 mg/kg/injection, schedule: Q04DX003 (ip), vehicle: Klucel (hydroxypropylcellulose) (HPC)

Measured: T/C

COCC(CNO)OC(=O)c1ccc(N)cc1 (stereo not given)
inactive: dose: 55.0 mg/kg/injection, schedule: Q01DX Z (ip), vehicle: saline 89 % of control | dose: 125.0 mg/kg/injection, schedule: Q01DX Z (ip), vehicle: saline 100 % of control

O=C(O)C(c1ccccc1)N1C(=O)c2ccccc2C1=O (stereo not given)
inactive: dose: 50.0 mg/kg/injection, schedule: Q04DX003 (ip), vehicle: Klucel (hydroxypropylcellulose) (HPC) 104 % of control | [1] 109 % of control | [2] 104 % of control

CCCCOP(OCCCC)Oc1ccccc1
inactive: [3] 89 % of control | [4] 89 % of control | [5] 97 % of control | dose: 200.0 mg/kg/injection, schedule: Q01DX009 (ip), vehicle: saline with Tween-80 100 % of control | [6] 96 % of control | [7] 103 % of control

C=CCNC(=O)Nc1cccc(OC(=O)NC(C)(C)C)c1
inactive: [5] 94 % of control | [6] 94 % of control | [7] 94 % of control

COC(=O)NS(=O)(=O)/C=C\n1c2ccccc2c2ccccc21
inactive: dose: 75.0 mg/kg/injection, schedule: Q01DX009 (ip), vehicle: Klucel (hydroxypropylcellulose) (HPC) 98 % of control | dose: 150.0 mg/kg/injection, schedule: Q01DX009 (ip), vehicle: Klucel (hydroxypropylcellulose) (HPC) 109 % of control

COC(=O)c1c(O)cc(OC)cc1OC
inactive: dose: 100.0 mg/kg/injection, schedule: Q01DX009 (ip), vehicle: other 108 % of control | dose: 100.0 mg/kg/injection, schedule: Q04DX003 (ip), vehicle: saline 95 % of control | dose: 200.0 mg/kg/injection, schedule: Q01DX009 (ip), vehicle: other 108 % of control | dose: 200.0 mg/kg/injection, schedule: Q04DX003 (ip), vehicle: saline 97 % of control | dose: 400.0 mg/kg/injection, schedule: Q01DX009 (ip), vehicle: other 108 % of control | dose: 400.0 mg/kg/injection, schedule: Q04DX003 (ip), vehicle: saline 111 % of control

CNC(=O)Nc1cccc([N+](=O)[O-])c1OC
inactive: [8] 100 % of control | [9] 103 % of control | dose: 400.0 mg/kg/injection, schedule: Q04DX002 (ip), vehicle: Klucel (hydroxypropylcellulose) (HPC) 106 % of control

CC(=O)Nc1cc(F)c([N+](=O)[O-])cc1[N+](=O)[O-]
inactive: dose: 0.62 mg/kg/injection, schedule: Q01DX009 (ip), vehicle: saline 96 % of control | dose: 1.25 mg/kg/injection, schedule: Q01DX009 (ip), vehicle: saline 102 % of control | dose: 2.5 mg/kg/injection, schedule: Q01DX009 (ip), vehicle: saline 93 % of control | dose: 2.5 mg/kg/injection, schedule: Q01DX015 (ip), vehicle: carboxymethylcellulose (CMC) 95 % of control | dose: 3.13 mg/kg/injection, schedule: Q04DX003 (ip), vehicle: saline with Tween-80 106 % of control | dose: 5.0 mg/kg/injection, schedule: Q01DX009 (ip), vehicle: saline 104 % of control | dose: 5.0 mg/kg/injection, schedule: Q01DX015 (ip), vehicle: carboxymethylcellulose (CMC) 95 % of control | dose: 6.25 mg/kg/injection, schedule: Q04DX003 (ip), vehicle: saline with Tween-80 90 % of control | dose: 10.0 mg/kg/injection, schedule: Q01DX009 (ip), vehicle: saline with Tween-80 92 % of control | dose: 10.0 mg/kg/injection, schedule: Q01DX009 (ip), vehicle: saline 96 % of control | dose: 10.0 mg/kg/injection, schedule: Q01DX015 (ip), vehicle: carboxymethylcellulose (CMC) 91 % of control | dose: 12.5 mg/kg/injection, schedule: Q04DX003 (ip), vehicle: saline with Tween-80 94 % of control | dose: 12.5 mg/kg/injection, schedule: Q04DX003 (ip), vehicle: saline 86 % of control | dose: 20.0 mg/kg/injection, schedule: Q01DX009 (ip), vehicle: saline with Tween-80 103 % of control | dose: 25.0 mg/kg/injection, schedule: Q04DX003 (ip), vehicle: saline with Tween-80 105 % of control | dose: 50.0 mg/kg/injection, schedule: Q01DX001 (ip), vehicle: saline 104 % of control and 106 % of control | dose: 100.0 mg/kg/injection, schedule: Q01DX001 (ip), vehicle: saline 95 % of control and 91 % of control | dose: 200.0 mg/kg/injection, schedule: Q01DX001 (ip), vehicle: saline 112 % of control | dose: 400.0 mg/kg/injection, schedule: Q01DX001 (ip), vehicle: saline 106 % of control

CC(=O)C1C(=O)OC(C)=C(C(=O)O)C1=O (stereo not given)
inactive: [3] 102 % of control | [4] 100 % of control | [5] 92 % of control | [6] 103 % of control

c1ccc(COCC[P+](c2ccccc2)(c2ccccc2)c2ccccc2)cc1
inactive: dose: 5.0 mg/kg/injection, schedule: Q01DX001 (ip), vehicle: saline 94 % of control | dose: 20.0 mg/kg/injection, schedule: Q01DX001 (ip), vehicle: saline 87 % of control

O=C(NCc1ccncc1)C(c1ccccc1)c1ccccc1
inactive: [8] 96 % of control | [9] 92 % of control

Cc1ccc(S(=O)(=O)N=[N+]=[N-])cc1
inactive: dose: 100.0 mg/kg/injection, schedule: Q01DX001 (ip), vehicle: Klucel (hydroxypropylcellulose) (HPC) 95 % of control | [10] 107 % of control | [1] 95 % of control | dose: 200.0 mg/kg/injection, schedule: Q01DX001 (ip), vehicle: Klucel (hydroxypropylcellulose) (HPC) 105 % of control | [11] 107 % of control | [2] 104 % of control | dose: 400.0 mg/kg/injection, schedule: Q01DX001 (ip), vehicle: Klucel (hydroxypropylcellulose) (HPC) 100 % of control | [12] 105 % of control | [13] 107 % of control

C=CCCCCCCCCC(=O)NCCN1CCOCC1
inactive: [5] 101 % of control

CC1(C)OC2OC(COC(=O)c3ccc([N+](=O)[O-])cc3)C(OC(=O)c3ccc([N+](=O)[O-])cc3)C2O1 (stereo not given)
inactive: dose: 100.0 mg/kg/injection, schedule: Q01DX001 (ip), vehicle: steriod suspending solution 87 % of control | dose: 200.0 mg/kg/injection, schedule: Q01DX001 (ip), vehicle: steriod suspending solution 95 % of control | dose: 400.0 mg/kg/injection, schedule: Q01DX001 (ip), vehicle: steriod suspending solution 104 % of control

NC(=O)OCCCCCCOC(N)=O
inactive: [5] 90 % of control | [6] 90 % of control | [7] 87 % of control

COc1ccc(NC(=O)Nc2cc(Cl)ccc2OC)c(OC)c1
inactive: [10] 94 % of control | [1] 103 % of control | [11] 102 % of control | [2] 101 % of control | [12] 96 % of control | [13] 101 % of control

CCCCCCC#CC(=O)OCCCCCC
inactive: dose: 100.0 mg/kg/injection, schedule: Q04DX002 (ip), vehicle: saline 108 % of control | dose: 200.0 mg/kg/injection, schedule: Q04DX002 (ip), vehicle: saline 94 % of control | dose: 400.0 mg/kg/injection, schedule: Q04DX002 (ip), vehicle: saline 97 % of control

N/N=C1\c2ccccc2-c2ccc([N+](=O)[O-])cc21
inactive: dose: 100.0 mg/kg/injection, schedule: Q01DX001 (ip), vehicle: carboxymethylcellulose (CMC) 95 % of control | dose: 200.0 mg/kg/injection, schedule: Q01DX001 (ip), vehicle: carboxymethylcellulose (CMC) 93 % of control | dose: 400.0 mg/kg/injection, schedule: Q01DX001 (ip), vehicle: carboxymethylcellulose (CMC) 95 % of control
